Laboratory results from ChEMBL document CHEMBL1667842, “Benzyl benzoates: New phlorizin analogs as mushroom tyrosinase inhibitors” (Bioorg Med Chem, 2011).
The source made the active and inactive calls. The rule behind the calls is not given here.

What was measured:
Tyrosinase [1] = molecular target: T1, Tyrosinase (Agaricus bisporus, UniProt O42713)
T1 sequence (O42713 whole entry): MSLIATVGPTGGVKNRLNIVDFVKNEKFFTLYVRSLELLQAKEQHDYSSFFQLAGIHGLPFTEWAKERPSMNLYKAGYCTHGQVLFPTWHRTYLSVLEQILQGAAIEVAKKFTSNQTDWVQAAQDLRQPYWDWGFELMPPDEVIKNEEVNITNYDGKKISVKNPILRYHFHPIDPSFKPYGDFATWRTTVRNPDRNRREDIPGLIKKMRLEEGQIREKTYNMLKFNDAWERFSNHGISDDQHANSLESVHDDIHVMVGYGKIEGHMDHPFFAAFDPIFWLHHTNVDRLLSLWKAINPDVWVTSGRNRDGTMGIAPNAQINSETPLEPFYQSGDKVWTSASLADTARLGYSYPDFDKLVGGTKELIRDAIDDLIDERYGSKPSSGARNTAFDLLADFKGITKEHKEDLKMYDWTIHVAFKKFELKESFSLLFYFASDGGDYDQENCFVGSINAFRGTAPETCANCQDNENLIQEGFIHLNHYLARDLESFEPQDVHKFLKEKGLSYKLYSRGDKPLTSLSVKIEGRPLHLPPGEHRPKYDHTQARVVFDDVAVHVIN
Description: Inhibition of mushroom tyrosinase preincubated for 20 mins

[2] = molecular target: T2, Tyrosinase (Agaricus bisporus) (UniProt O42713); experiment: (§1) Competitive inhibition of mushroom tyrosinase by Lineweaver-Burk plot analysis
T2 sequence (whole entry): T1 sequence (O42713 whole entry)

Tyrosinase [3] = molecular target: T1, Tyrosinase; experiment: as §1

Row | SMILES | IC50 (Tyrosinase [1]) [µM] | Activity [2] | Ki (Tyrosinase [3]) [µM]
1 | O=C(OCc1cccc(O)c1)c1cc(O)c(O)c(O)c1 | 11.5 |  | 
2 | O=C(OCc1ccc(O)cc1)c1cc(O)c(O)c(O)c1 [4-HYDROXYBENZYL GALLATE] | 25.7 |  | 
3 | O=C(OCc1ccc(O)cc1)c1cc(O)ccc1O [4-HYDROXYBENZYL 2,5-DIHYDROXYBENZOATE] | 12.3 |  | 
4 | O=C(OCc1cccc(O)c1)c1cc(O)ccc1O [3-HYDROXYBENZYL 2,5-DIHYDROXYBENZOATE] | 24.4 |  | 
5 | O=C(OCc1ccccc1O)c1cc(O)cc(O)c1 | 19.9 |  | 
6 | O=C(OCc1ccccc1O)c1ccc(O)cc1O | 66.2 |  | 
7 | O=C(OCc1ccccc1O)c1cc(O)c(O)c(O)c1 | > 100 |  | 
8 | O=C(OCc1ccc(O)cc1)c1cc(O)cc(O)c1 [4-HYDROXYBENZYL 3,5-DIHYDROXYBENZOATE] | 5.84 | Active | 
9 | O=C(OCc1ccc(O)cc1)c1ccc(O)cc1O | 4.69 |  | 1.11
10 | O=C(OCc1cccc(O)c1)c1cc(O)cc(O)c1 | 6.11 | Active | 
11 | O=C(OCc1ccccc1O)c1cc(O)ccc1O | > 100 |  | 
12 | O=C(OCc1ccc(O)cc1)c1c(O)cc(O)cc1O [4-HYDROXYBENZYL 2,4,6-DIHYDROXYBENZOATE] | 8 | Active | 
13 | O=C(OCc1cccc(O)c1)c1ccc(O)cc1O | 6.23 | Active | 
14 | O=C(OCc1ccccc1O)c1c(O)cc(O)cc1O | 19.9 |  | 
